Key:
[1] = test system: acetylated tubulin, acetylated histone H3, acetylated histone H4 and p21 in MDA-MB-231 cell lines; assay: Western blot analysis in MDA-MB-231 cell line; type: cell-based
U937 xenograft = U937 xenograft model in vivo antitumor assay
[2] = test system: class IIa HDACs (MDA-MB-231 cell lysate); conditions: class IIa-specific substrate, NA: not active at 10 μM

CCCC(CCC)C(=O)N[C@H](COc1ccc(/C=C/C(=O)NO)cc1OC)Cc1c[nH]c2ccccc12 [Compound 17a]
effect on acetylated tubulin level ([1]; 1 μM, 3 h and 24 h, MDA-MB-231, compared with SAHA): almost no effect | effect on histone H4 acetylation with time ([1]; 1 μM, 3 h vs 24 h, MDA-MB-231): maintained even increased | effects on the levels of histone acetylation and p21 expression ([1]; 1 μM, MDA-MB-231, especially after 24 h of treatment): comparable even superior to SAHA | cell permeability (by monitoring intracellular acetylation levels) ([1]; MDA-MB-231 cell line): cell permeable | toxic signs in liver and spleen (U937 xenograft; U937 xenograft mice, once daily by oral gavage for three weeks): no evident toxic signs in liver and spleen | body weight loss (U937 xenograft; mouse, in vivo, po): no significant body weight loss | IC50 class IIa cell lysate [2]: no obvious inhibition

Reference: PMC3593252 (ACS medicinal chemistry letters, 2013)
